As a reminder, the EC50 is the concentration that produces a half-maximal response. One may read the inhibition as the drop in the measured response relative to a control, in per cent.

The test system of assay [1] is MCP-1 (Monocyte chemoattractant protein-1) secretion. In words: Inhibition of MCP-1 secretion in LX-2 cells (ELISA). The note with it: Homo sapiens, TGF-beta 10 ng/ml, 30 to 1 μM test compound, 24 hours, read-out: LX-2 cell EC50 (MCP-1 secretion). It is filed as cell-based. The procedure: LX-2 cells, a hepatic stellate cell line, were cultured in 24-well tissue culture plates for 18 hours, followed by TGF-beta 10 ng/ml treatment, and then incubated with 30 to 1 μM of the test compound for 24 hours. The secreted MCP-1 protein in the cell culture medium was quantified using ELISA reagents (RnD, USA). The EC50 value was calculated from the quantitative value of MCP-1 resulting from the treatment of each test compound using prism software (Graphpad, ver 9.4 USA).

For a further assay, the system named is LX-2 cells. Nature of the assay: Sirius red assay, hepatic stellate cell fibrosis (TGF-beta treated LX-2). The note with it: Homo sapiens; for EC50: LX-2, collagen production, TGF-beta 10 ng/ml, 24 hours; for inhibition at 10 µM: LX-2 cells, collagen production. It is filed as cell-based. The procedure:
(§1) Liver stellate LX-2 (Elabscience C H), lung epithelial A549 (ATCC US), or skin KEL FIB (ATCC, US) cells were cultured in 24-well tissue culture plates for 18 hours, followed by TGF-beta 10 ng/ml treatment, and then incubated with test compound for 24 hours. Cells were washed with PBS, fixed with Bouin's solution, and washed twice with distilled water. The fixed cells were stained with Sirius red for 2 hours to observe cellular morphological changes, and then washed with 0.01 N HCl solution. Collagen-bound Sirius red was extracted with 0.1 N NaOH solution, which was then quantified at a wavelength of 570 nm. The inhibitory efficacy of each compound on collagen production was shown as a percentage or EC50.

The target of another assay is HSP47 (Homo sapiens (Human), UniProt P50454). Nature of the assay: Evaluation of HSP47 activity (inhibition of collagen fibril formation, 340 nm). The note with it: for inhibition at 100 µM: HSP47 inhibition; for EC50: HSP47 9.45 μg/ml, collagen fibril formation, test compound 100 μM to 1 μM. It is filed as biochemical. The procedure:
Fibrils were formed by adding 180 ul of phosphate-buffered saline (PBS, pH 7.4) solution to 20 ul of collagen dissolved in acidic solution (collagen solution, UK), which was measured at a wavelength of 340 nm. HSP47 (GenScript US) was added at a concentration of 9.45 μg/ml to assess HSP47 activity as the degree to which it inhibits fibril formation. Test compound was added with concentrations of 100 μM to 1 μM and the inhibitory activity of HSP47 was calculated as a percentage or EC50.

A further assay has as its system A549 cells. In words: Sirius red assay, lung epithelial cell fibrosis (TGF-beta treated A549). The format is cell-based. The note with it: Homo sapiens, collagen production. The procedure: as §1

Structures are written as SMILES.

Sequence of HSP47 (P50454 19-418, species assumed): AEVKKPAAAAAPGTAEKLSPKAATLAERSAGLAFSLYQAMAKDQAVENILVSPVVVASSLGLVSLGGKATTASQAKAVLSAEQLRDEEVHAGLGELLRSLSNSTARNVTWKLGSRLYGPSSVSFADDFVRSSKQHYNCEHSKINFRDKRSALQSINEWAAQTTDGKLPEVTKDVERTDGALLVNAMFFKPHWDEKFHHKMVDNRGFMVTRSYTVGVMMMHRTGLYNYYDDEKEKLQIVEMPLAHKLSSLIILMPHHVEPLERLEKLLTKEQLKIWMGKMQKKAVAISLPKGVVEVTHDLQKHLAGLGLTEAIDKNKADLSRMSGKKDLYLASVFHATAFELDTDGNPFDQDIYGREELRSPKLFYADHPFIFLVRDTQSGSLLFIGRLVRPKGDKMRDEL

With `CCc1oc2c(F)cccc2c1C(=O)c1cc(Br)c(O)c(Br)c1` [Example 7, (3,5-dibromo-4-hydroxyphenyl)(2-ethyl-7-fluorobenzofuran-3-yl)methanone], the EC50 turned out to be 2.85 µM in assay [1] and 10.9 µM in the assay on LX-2 cells. In addition, the inhibition at 100 µM on HSP47 was 18.1%.

Regarding `CCc1oc2cc(Br)ccc2c1C(=O)c1cc(I)c(O)c(I)c1` [Example 11, (6-bromo-2-ethylbenzofuran-3-yl)(4-hydroxy-3,5-diiodophenyl)methanone], the inhibition at 10 µM in the assay on LX-2 cells was found to be 78.3%. In addition, the inhibition at 100 µM against HSP47 was determined as 69.2%.

As for `CCc1oc2c(Br)cccc2c1C(=O)c1cc(Br)c(O)c(Br)c1` [Example 6, (7-bromo-2-ethylbenzofuran-3-yl)(3,5-dibromo-4-hydroxyphenyl)methanone], the EC50 was 10.2 µM in assay [1], 17.1 µM in the assay on LX-2 cells and 80.8 µM at HSP47.

Turning to `CCc1oc2c(Br)cccc2c1C(=O)c1cc(I)c(O)c(I)c1` [Example 15, (7-bromo-2-ethylbenzofuran-3-yl)(4-hydroxy-3,5-diiodophenyl)methanone], in the assay on A549 cells, the inhibition at 30 µM was determined as 96.2%. On HSP47, this compound yielded an EC50 of 48.3 µM.

On to `CCc1oc2c(CC)cccc2c1C(=O)c1cc(Br)c(O)c(Br)c1` [Example 21, (3,5-dibromo-4-hydroxyphenyl)(2,7-diethylbenzofuran-3-yl)methanone], for which the EC50 in assay [1] turned out to be 2.8 µM; in the assay with LX-2 cells, 3.07 µM; at HSP47, 5.52 µM.

For `CCc1oc2cc(C)ccc2c1C(=O)c1cc(I)c(O)c(I)c1` [Example 10, (2-ethyl-6-methylbenzofuran-3-yl)(4-hydroxy-3,5-diiodophenyl)methanone], the inhibition at 10 µM in the assay on LX-2 cells is 128%. Besides, the inhibition at 100 µM against HSP47 came out at 41.8%.

With `CCc1oc2ccc(C)cc2c1C(=O)c1cc(Br)c(O)c(Br)c1` [Example 2, (3,5-dibromo-4-hydroxyphenyl)(2-ethyl-5-methylbenzofuran-3-yl)methanone], in the assay on LX-2 cells, the inhibition at 10 µM is 65.1%. For the same compound, on HSP47, the EC50 amounted to 40.8 µM.

As for `CCc1oc2cccc(Cl)c2c1C(=O)c1cc(Br)c(O)c(Br)c1` [Example 1, (4-chloro-2-ethylbenzofuran-3-yl)(3,5-dibromo-4-hydroxyphenyl)methanone], the results for the EC50 (in assay [1]; in the assay on LX-2 cells) were 4.61 µM and 3 µM, respectively. The inhibition at 100 µM against HSP47 was 23.3%.

For `CCc1oc2cccc(C)c2c1C(=O)c1cc(Br)c(O)c(Br)c1` [Example 23, (3,5-dibromo-4-hydroxyphenyl)(2-ethyl-4-methylbenzofuran-3-yl)methanone], the 50% effective concentration (EC50) in the assay on LX-2 cells came to 3.39 µM; on HSP47, 71 µM.

As for `CCc1oc2cccc(F)c2c1C(=O)c1cc(Br)c(O)c(Br)c1` [Example 24, (3,5-dibromo-4-hydroxyphenyl)(2-ethyl-4-fluorobenzofuran-3-yl)methanone], the EC50 worked out at 3.6 µM with LX-2 cells and 104 µM on HSP47.

For `CCc1oc2c(C)cccc2c1C(=O)c1cc(Br)c(O)c(Br)c1` [Example 4, (3,5-dibromo-4-hydroxyphenyl)(2-ethyl-7-methylbenzofuran-3-yl)methanone], the EC50 amounted to 8.69 µM in assay [1], 5.55 µM in the assay with LX-2 cells and 73 µM on HSP47.

Consider `CCc1oc2c(Cl)cccc2c1C(=O)c1cc(I)c(O)c(I)c1` [Example 14, (7-chloro-2-ethyl-3-yl)(4-hydroxy-3,5-diiodophenyl)methanone], for which the inhibition at 10 µM in the assay with LX-2 cells was 90.6%.

As to `Cc1oc2ccc(Br)cc2c1C(=O)c1cc(Br)c(O)c(Br)c1` [Example 18, (5-bromo-2-methylbenzofuran-3-yl)(3,5-dibromo-4-hydroxyphenyl)methanone], the EC50 in assay [1] is 3.01 µM; in the assay on LX-2 cells it was 4.67 µM. In addition, the inhibition at 100 µM at HSP47 was found to be 75.2%.

As to `CCc1ccc2oc(CC)c(C(=O)c3cc(Br)c(O)c(Br)c3)c2c1` [Example 20, (3,5-dibromo-4-hydroxyphenyl)(2,5-diethylbenzofuran-3-yl)methanone], the EC50 in assay [1] turned out to be 2.1 µM; with LX-2 cells, 4.02 µM; at HSP47, 49.2 µM.

For the compound `CCc1oc2ccc(C)cc2c1C(=O)c1cc(I)c(O)c(I)c1` [Example 8, (2-ethyl-5-methylbenzofuran-3-yl)(4-hydroxy-3,5-diiodophenyl)methanone], the inhibition at 10 µM in the assay on LX-2 cells was 67.9%. Moreover, on HSP47, a half-maximal response (EC50) required 37.1 µM.

As for `CCc1oc2c(Cl)cccc2c1C(=O)c1cc(Br)c(O)c(Br)c1` [Example 5, (7-chloro-2-ethylbenzofuran-3-yl)(3,5-dibromo-4-hydroxyphenyl)methanone], the concentration for a half-maximal effect (EC50) was 3.56 µM in assay [1], 4.73 µM with LX-2 cells and 37.8 µM at HSP47.

As for `O=C(c1cc(Br)c(O)c(Br)c1)c1coc2ccccc12` [Example 16, benzofuran-3-yl(3,5-dibromo-4-hydroxyphenyl)methanone], the inhibition at 10 µM in the assay on A549 cells came out at 64.3%. The concentration giving a half-maximal response (EC50) at HSP47 turned out to be 31.4 µM.

Turning to `Cc1oc2cc(Br)ccc2c1C(=O)c1cc(Br)c(O)c(Br)c1` [Example 17, (6-bromo-2-methylbenzofuran-3-yl)(3,5-dibromo-4-hydroxyphenyl)methanone], the EC50 in assay [1] was determined as 3.73 µM; in the assay with LX-2 cells, 3.7 µM. In addition, at HSP47, the inhibition at 100 µM was determined as 19.5%.

In the case of `CCc1ccc2c(C(=O)c3cc(Br)c(O)c(Br)c3)c(CC)oc2c1` [Example 3, (3,5-dibromo-4-hydroxyphenyl)(2,6-diethylbenzofuran-3-yl)methanone], the EC50 in assay [1] worked out at 2.21 µM; in the assay on LX-2 cells, 1.37 µM. In addition, the inhibition at 100 µM at HSP47 came to 26.3%.

Consider `CCc1oc2c(C)cccc2c1C(=O)c1cc(I)c(O)c(I)c1` [Example 13, (2-ethyl-7-methylbenzofuran-3-yl)(4-hydroxy-3,5-diiodophenyl)methanone], for which, in the assay on A549 cells, the inhibition at 10 µM was found to be 65.2% and the inhibition at 30 µM was 72.5%. Moreover, the half-maximal effective concentration (EC50) on HSP47 was 49.1 µM.

For the origin of these results see patent US20250282741A1, “NOVEL BENZOFURANYL HYDROXYPHENYL METHANONE DERIVATIVE COMPOUND OR PHARMACEUTICALLY ACCEPTABLE SALT THEREOF” (INNOVO THERAPEUTICS INC., priority 2021, published 2025).
